Laboratory results: patent publication US8822541B2, “Use of targeted nitroxide agents in mitigating or treating radiation injury” (University of Pittsburgh—Of the Commonwealth System of …, priority 2008, dated 2014)
Entries after “also recorded” stand apart in the source; their conditions may differ.

Columns and labels:
[1] = test system: MEF cells from Ercc1−/− mice; test: Senescence, DNA damage, apoptosis and proliferation in Ercc1−/− MEF cells under oxidative stress; type: cell-based, mouse; conditions: for γ-H2AX immunostaining: 1 μM, 48 hours; for γ-H2AX immunostaining / level of p16: 20% oxygen; for level of p16: 1 uM, 48 hrs
Description: Graphs showing weight over time of treated, untreated and control animals are shown in FIG. 36A-B. To assess the impact of XJB-5-131 at a cellular level, a number of experiments were carried out using mouse embryonic fibroblasts (“MEF”) cells harvested from Ercc1^−/− mouse embryos.
To test the protective activity of JP4-039, cultures of primary MEFs were prepared from Ercc1^−/− mouse embryos and grown under 20% oxygen (ambient air), which creates oxidative stress in these cells that are hypersensitive to reactive oxygen species. The cells were then either treated with a concentration of 1 uM XJB-5-131, JP4-039, JED-E71-37 or JED-E71-58, or left untreated (media), and then after 48 hrs the level of p16, a marker of irreversible cellular senescence, was measured by immunofluorescence staining.
To evaluate the protective activities of JED-E71-37 and JED-E71-58, primary MEF cells were prepared from Ercc1^−/− mice and grown under conditions of oxidative stress (ambient air, 20% oxygen). The cells were then either untreated or treated with 1 μM JED-E71-37 or JED-E71-58 for a period of 48 hours.
Next, the abilities of these two agents, as well as XJB-5-131 and JP4-039, each at a concentration of 1 μM, were tested for their ability to prevent oxidation-induced DNA double-strand breaks in cell cultures prepared, and oxidatively stressed, as in the preceding paragraph. Treated as well as untreated cells were, after 48 hours of treatment, immunostained for γ-H2AX, a marker of DNA double-strand breaks as well as cellular senescence.

[2] = test system: MEF cells from Ercc1−/− mouse embryos; test: Toxicity of JP4-039 in Ercc1−/− MEF cultures; type: cell-based; conditions: up to 10 μM
Description: (§1) To assess the therapeutic potential of JP4-039, tests for safety and protective activity were performed. FIGS. 35 and 36 show the results of tests to evaluate whether varying concentrations of JP4-039 produce toxic effects after 48 hours in cultures of MEF cells prepared from Ercc1^−/− or wild-type mouse embryos, respectively.

[3] = test system: MEF cells from wild-type mouse embryos; test: Toxicity of JP4-039 in wild-type MEF cultures; type: cell-based; conditions: up to 10 μM, 48 hours
Description: as §1

32D cl 3 cells = test: Clonogenic radiation survival curves of 32D cl 3 cells (PLDR study); type: cell-based, mouse; set-up: key to D0: D0 in Gy, from single-hit multitarget model
Description: (§2) 32D cl 3 cells were resuspended at 1×10^5 cells/mL in 10×100-mm tubes and divided into three groups: radiation only, post-irradiation treatment with 10 μM JP4-039, and post-irradiation treatment with 10 μM TEMPO. Cells were irradiated to doses ranging from 0 to 8 Gy and were plated immediately after irradiation.
as §2, with “5×10^5” for “1×10^5”, “then incubated in exponentially growing colonies (flasks) for 24, 48 and 72 h in a high-humidity incubator at 37° C. with 95% air/5% CO2.” for “plated immediately after irradiation.”
32D cl 3 cells were resuspended at 5×10^5 cells/mL in 10×100-mm tubes. Cells were irradiated to doses ranging from 0 to 8 Gy and were then centrifuged at 1500 RPM for 10 minutes and incubated in vertical tubes held tight in pellets with a total of 5×10^5 cells/pellet for 24, 48 and 72 h in a high-humidity incubator at 37° C. with 95% air/5% CO2.
Cells incubated under either logarithmic or PLDR conditions were resuspended at 24, 48 and 72 h after irradiation, and cell viability was assessed using an automated cell viability counter (Beckman Coulter, Fullerton, Calif.). Subsequently, at 24, 48, 72 h, cells in pellets and flasks were resuspended and treated with 10 μM JP4-039, 10 μM TEMPO, or no treatment and were plated in triplicate in semisolid methylcellulose-containing medium at viable cell concentrations ranging from 500-40,000 cells/mL. Cells were incubated in a high-humidity incubator at 37° C. with 95% air/5% CO2 for 7 d and colonies of greater than 50 cells were scored according to published methods (Epperly M W, Gretton J E, Sikora C A, Jefferson M, Bernarding M, Nie S, et al.: Mitochondrial localization of superoxide, dismutase is required for decreasing radiation-induced cellular damage. Radiat Res. 160: 568-578, 2003).
Data from radiation survival curves were analyzed using the linear-quadratic and single-hit, multitarget models (Epperly M, et al., Prevention of late effects of irradiation lung damage by manganese superoxide dismutase gene therapy. Gene Ther. 5: 196-208, 1998). Results are presented as the mean±standard error of the mean from at least three measurements. Student's t test and two-way ANOVA were used to compare means of different groups where appropriate.

mouse embryonic cells = test: EPR-based analysis of integration and reduction of nitroxide Gramicidin S-peptidyl conjugates in MECs; type: cell-based; conditions: following incubation with solutions of the compounds
Description: Electron paramagnetic resonance (“EPR”) spectroscopy was used to monitor the cellular delivery of compounds 5a and 5b shown in FIG. 3 in mouse embryonic cells (“MEC”).
The following conditions were used during the EPR-based analysis of the integration and reduction of nitroxide Gramicidin S-peptidyl conjugates in MECs. The MECs at a concentration of 10 million MECs per mL were incubated with 10 μM of 4-AT and compound 5a, respectively. Recovered nitroxide radicals in whole cells, mitochondria, and cytosol fractions were resuspended in phosphate buffer saline (“PBS”) in the presence and absence, respectively, of 2 μM K3Fe(CN)6.

[4] = 0 hours, 10 μM post-irradiation

`CC(C)C[C@@H](/C=C/CC(=O)NC1CC(C)(C)N([O])C(C)(C)C1)NC(=O)OC(C)(C)C` [JP4-039, TEMPO-4-yl-(S,E)-5-(tert-butoxycarbonylamino)-7-methyloct-3-enamide] was tested. Which γ-H2AX immunostaining [1] did it give?
The γ-H2AX immunostaining was “also effective”.

And the “level of p16” value [1]?
The value was “much lower”.

And the “cellular proliferation relative to untreated control cells” value ([2]; Ercc1−/− or wild-type MEF)?
The value was “enhanced”.

And the toxicity ([2]; 48 hours)?
The toxicity was “no signs of toxicity; also recorded: not toxic”.

What about the toxicity [3] of the same compound?
The toxicity was “no signs of toxicity; also recorded: not toxic”.

What about the D0 (32D cl 3 cells; [4]) of the same compound?
The D0 was 0.91 ± 0.11.

And the Ñ (32D cl 3 cells; [4])?
The Ñ was 37.43±7.50.

And the radiation mitigation (32D cl 3 cells; 48 or 72 h after irradiation)?
The radiation mitigation was “no statistically significant radiation mitigation”.

And the D0 (32D cl 3 cells; 24 hours (Flask), 10 μM)?
The D0 was 1.22 ± 0.16.

What about the Ñ (32D cl 3 cells; 24 hours (Flask), 10 μM) of the same compound?
The Ñ was 10.35±0.33.

What about the D0 (32D cl 3 cells; 24 hours (Pellet), 10 μM) of the same compound?
Its D0 is 1.12 ± 0.27.

What about the Ñ (32D cl 3 cells; 24 hours (Pellet), 10 μM) of the same compound?
Its Ñ is 18.49±3.90.

How did the “concentration in the mitochondria of cultured mouse embryonic cells” value (mouse embryonic cells) turn out when `CC(C)C[C@@H](/C=C/[C@H](Cc1ccccc1)C(=O)N1CCC[C@H]1C(=O)N[C@H](C(=O)N[C@@H](CCCNC(=O)OCc1ccccc1)C(=O)NC1CC(C)(C)N([O])C(C)(C)C1)C(C)C)NC(=O)OC(C)(C)C` [XJB-5-131] was run?
The value was “concentrated in the mitochondria”.

What about the SA-β galactosidase staining ([1]; 500 nM) of the same compound?
The SA-β galactosidase staining was “notably less”.

What about the amount of apoptosis ([1]; 500 nM) of the same compound?
The amount of apoptosis was “did not reduce the amount of apoptosis”.

And the “number of γH2AX foci” value ([1]; 500 nM)?
The value was “reduce the number of γH2AX foci”.

And the γ-H2AX immunostaining [1]?
The γ-H2AX immunostaining was “less effective”.

What about the “level of p16” value [1] of the same compound?
The value was “less effective”.
